Experimental data reported in patent publication US12077503B2, “Substituted cyclic amides and their use as herbicides” (FMC CORPORATION, priority 2015, dated 2024).

Tests used:
Format in all cases: in vivo
[1] = system: velvetleaf (Abutilon theophrasti); assay: Test A postemergence
Procedure, shortened: (§1)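 Seeds sprayed preemergence with a directed soil spray, or plants at 2 to 10 cm height and one- to two-leaf stage sprayed postemergence, with test chemicals in a non-phytotoxic solvent mixture containing surfactant, in loam soil–sand blend. Injury rated visually against untreated controls after about 10 d in greenhouse, 0 (no effect) to 100 (complete control).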

[2] = system: barnyardgrass (Echinochloa crus-galli); assay: Test A postemergence
Procedure, shortened: as §1

corn (Zea mays) [3] = assay: Test A postemergence
Procedure, shortened: as §1

[4] = system: morningglory (Ipomoea spp.); assay: Test A postemergence
Procedure, shortened: as §1

[5] = system: wheat (Triticum aestivum); assay: Test A postemergence
Procedure, shortened: as §1

[6] = system: giant foxtail (Setaria faberii); assay: Test A postemergence
Procedure, shortened: as §1

[7] = system: crabgrass, large (Digitaria sanguinalis); assay: Test A postemergence
Procedure, shortened: as §1

[8] = system: pigweed (Amaranthus retroflexus); assay: Test A postemergence
Procedure, shortened: as §1

[9] = system: velvetleaf (Abutilon theophrasti); assay: Test A preemergence; settings: for Velvetleaf plant response rating (0 to 100 scale): Preemergence, 0 is no effect, 100 is complete control; for Plant response rating, Velvetleaf: preemergence
Procedure, shortened: as §1

[10] = system: barnyardgrass (Echinochloa crus-galli); assay: Test A preemergence; settings: for Barnyardgrass plant response rating (0 to 100 scale): Preemergence, 0 is no effect, 100 is complete control; for Plant response rating, Barnyardgrass: preemergence
Procedure, shortened: as §1

corn (Zea mays) [11] = assay: Test A preemergence; settings: for Corn plant response rating (0 to 100 scale): Preemergence, 0 is no effect, 100 is complete control; for Plant response rating, Corn: preemergence
Procedure, shortened: as §1

[12] = system: morningglory (Ipomoea spp.); assay: Test A preemergence; settings: for Morningglory plant response rating (0 to 100 scale): Preemergence, 0 is no effect, 100 is complete control; for Plant response rating, Morningglory: preemergence
Procedure, shortened: as §1

[13] = system: wheat (Triticum aestivum); assay: Test A preemergence; settings: for Wheat plant response rating (0 to 100 scale): Preemergence, 0 is no effect, 100 is complete control; for Plant response rating, Wheat: preemergence
Procedure, shortened: as §1

[14] = system: giant foxtail (Setaria faberii); assay: Test A preemergence; settings: for Foxtail, Giant plant response rating (0 to 100 scale): Preemergence, 0 is no effect, 100 is complete control; for Plant response rating, Foxtail, Giant: preemergence
Procedure, shortened: as §1

[15] = system: crabgrass, large (Digitaria sanguinalis); assay: Test A preemergence; settings: for Crabgrass, Large plant response rating (0 to 100 scale): Preemergence, 0 is no effect, 100 is complete control; for Plant response rating, Crabgrass, Large: preemergence
Procedure, shortened: as §1

[16] = system: pigweed (Amaranthus retroflexus); assay: Test A preemergence; settings: for Pigweed plant response rating (0 to 100 scale): Preemergence, 0 is no effect, 100 is complete control; for Plant response rating, Pigweed: preemergence
[17] = system: barnyardgrass (Echinochloa crus-galli); assay: Test B flooded paddy test; settings: Flood, 250 g ai/ha; 0 to 100 scale where 0 is no effect and 100 is complete control; 13 to 15 d
Procedure, shortened: (§2)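 Flooding to 3 cm over soil accompanied treatment, which consisted of adding compound to the standing water around 2-leaf plants; depth was then maintained. Visual assessment versus controls followed at 13 to 15 d (scale 0–100, 0 meaning no effect).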

rice (Oryra sativa) = assay: Test B flooded paddy test; settings: Flood, 250 g ai/ha; 0 to 100 scale where 0 is no effect and 100 is complete control; 13 to 15 d
Procedure, shortened: as §2

[18] = system: ducksalad (Heteranthera limosa); assay: Test B flooded paddy test; settings: Flood, 250 g ai/ha; 0 to 100 scale where 0 is no effect and 100 is complete control; 13 to 15 d
Procedure, shortened: as §2

[19] = system: sedge, umbrella (small-flower umbrella sedge, Cyperus difformis); assay: Test B flooded paddy test; settings: Flood, 250 g ai/ha; for Sedge, Umbrella plant response rating: scale of 0 to 100 where 0 is no effect and 100 is complete control
Procedure, shortened: as §2

[20] = 1000 g ai/ha, postemergence, 0 to 100 scale, 0 no effect, 100 complete control
[21] = 125 g ai/ha, postemergence, visual injury after approximately 10 d, 0 to 100 scale (0 no effect, 100 complete control)
[22] = 500 g ai/ha, postemergence, visual injury, 0 to 100 scale (0 no effect, 100 complete control), approx. 10 d
[23] = 125 g ai/ha, visual rating after approx. 10 d, 0 to 100 scale where 0 is no effect and 100 is complete control
[24] = 500 g ai/ha, 0 to 100 scale, 0 = no effect, 100 = complete control
[25] = 500 g ai/ha, postemergence, 0 to 100 scale, 0 no effect, 100 complete control
[26] = Postemergence, 125 g ai/ha, visual injury, 0 to 100 scale (0 no effect, 100 complete control), approx. 10 d
[27] = 125 g ai/ha, 0 to 100 scale (0 no effect, 100 complete control)

Cc1cccc(NC(=O)C2C(=O)NCC2c2ccc(F)c(F)c2)c1N (racemic) [Compound 355]
0: Plant response rating, Velvetleaf [1, 20] | Plant response rating, Barnyardgrass [2, 20] | Plant response rating, Corn (corn (Zea mays) [3]; [20]) | Plant response rating, Morningglory [4, 20] | Plant response rating, Wheat [5, 20] | Plant response rating, Foxtail, Giant [6, 20] | Plant response rating, Crabgrass, Large [7, 20] | Plant response rating, Pigweed [8, 20] | Velvetleaf plant response rating (0 to 100 scale) ([9]; 1000 g ai/ha) | Barnyardgrass plant response rating (0 to 100 scale) ([10]; 1000 g ai/ha) | Corn plant response rating (0 to 100 scale) (corn (Zea mays) [11]; 1000 g ai/ha) | Morningglory plant response rating (0 to 100 scale) ([12]; 1000 g ai/ha) | Wheat plant response rating (0 to 100 scale) ([13]; 1000 g ai/ha) | Foxtail, Giant plant response rating (0 to 100 scale) ([14]; 1000 g ai/ha) | Crabgrass, Large plant response rating (0 to 100 scale) ([15]; 1000 g ai/ha) | Pigweed plant response rating (0 to 100 scale) ([16]; 1000 g ai/ha)

Nc1c(NC(=O)C2C(=O)NCC2c2ccc(F)c(F)c2)cccc1[N+](=O)[O-] (racemic) [Compound 357]
0: Plant response rating, Velvetleaf [1, 20] | Plant response rating, Barnyardgrass [2, 20] | Plant response rating, Corn (corn (Zea mays) [3]; [20]) | Plant response rating, Morningglory [4, 20] | Plant response rating, Wheat [5, 20] | Plant response rating, Foxtail, Giant [6, 20] | Plant response rating, Crabgrass, Large [7, 20] | Plant response rating, Pigweed [8, 20] | Velvetleaf plant response rating (0 to 100 scale) ([9]; 1000 g ai/ha) | Barnyardgrass plant response rating (0 to 100 scale) ([10]; 1000 g ai/ha) | Corn plant response rating (0 to 100 scale) (corn (Zea mays) [11]; 1000 g ai/ha) | Morningglory plant response rating (0 to 100 scale) ([12]; 1000 g ai/ha) | Wheat plant response rating (0 to 100 scale) ([13]; 1000 g ai/ha) | Foxtail, Giant plant response rating (0 to 100 scale) ([14]; 1000 g ai/ha) | Crabgrass, Large plant response rating (0 to 100 scale) ([15]; 1000 g ai/ha) | Pigweed plant response rating (0 to 100 scale) ([16]; 1000 g ai/ha)

O=C1NCC(c2cccc(O)c2)C1C(=O)Nc1ccccc1F (racemic) [Compound 714]
30: Plant response rating, Crabgrass, Large [15, 24]
20: Plant response rating, Foxtail, Giant [14, 24] | Plant response rating, Crabgrass, Large [15, 23]
0: Plant response rating, Velvetleaf [1, 21] | Plant response rating, Velvetleaf [1, 22] | Plant response rating, Barnyardgrass [2, 21] | Plant response rating, Barnyardgrass [2, 22] | Plant response rating, Corn (corn (Zea mays) [3]; [21]) | Plant response rating, Corn (corn (Zea mays) [3]; [22]) | Plant response rating, Morningglory [4, 21] | Plant response rating, Morningglory [4, 22] | Plant response rating, Wheat [5, 21] | Plant response rating, Wheat [5, 22] | Plant response rating, Foxtail, Giant [6, 21] | Plant response rating, Foxtail, Giant [6, 22] | Plant response rating, Crabgrass, Large [7, 21] | Plant response rating, Crabgrass, Large [7, 22] | Plant response rating, Pigweed [8, 21] | Plant response rating, Pigweed [8, 22] | Plant response rating, Barnyardgrass [17] | Plant response rating, Rice (rice (Oryra sativa)) | Plant response rating, Ducksalad [18] | Sedge, Umbrella plant response rating [19] | Plant response rating, Velvetleaf [9, 23] | Plant response rating, Velvetleaf [9, 24] | Plant response rating, Barnyardgrass [10, 23] | Plant response rating, Barnyardgrass [10, 24] | Plant response rating, Corn (corn (Zea mays) [11]; [23]) | Plant response rating, Corn (corn (Zea mays) [11]; [24]) | Plant response rating, Morningglory [12, 23] | Plant response rating, Morningglory [12, 24] | Plant response rating, Wheat [13, 23] | Plant response rating, Wheat [13, 24] | Plant response rating, Foxtail, Giant [14, 23] | Plant response rating, Pigweed [16, 23] | Plant response rating, Pigweed [16, 24]

O=C1NCC(c2cccc(O)c2)C1C(=O)Nc1cccc(F)c1F (racemic) [Compound 715]
0: Plant response rating, Velvetleaf [1, 21] | Plant response rating, Velvetleaf [1, 22] | Plant response rating, Barnyardgrass [2, 21] | Plant response rating, Barnyardgrass [2, 22] | Plant response rating, Corn (corn (Zea mays) [3]; [21]) | Plant response rating, Corn (corn (Zea mays) [3]; [22]) | Plant response rating, Morningglory [4, 21] | Plant response rating, Morningglory [4, 22] | Plant response rating, Wheat [5, 21] | Plant response rating, Wheat [5, 22] | Plant response rating, Foxtail, Giant [6, 21] | Plant response rating, Foxtail, Giant [6, 22] | Plant response rating, Crabgrass, Large [7, 21] | Plant response rating, Crabgrass, Large [7, 22] | Plant response rating, Pigweed [8, 21] | Plant response rating, Pigweed [8, 22] | Plant response rating, Barnyardgrass [17] | Plant response rating, Rice (rice (Oryra sativa)) | Plant response rating, Ducksalad [18] | Sedge, Umbrella plant response rating [19] | Plant response rating, Velvetleaf [9, 23] | Plant response rating, Velvetleaf [9, 24] | Plant response rating, Barnyardgrass [10, 23] | Plant response rating, Barnyardgrass [10, 24] | Plant response rating, Corn (corn (Zea mays) [11]; [23]) | Plant response rating, Corn (corn (Zea mays) [11]; [24]) | Plant response rating, Morningglory [12, 23] | Plant response rating, Morningglory [12, 24] | Plant response rating, Wheat [13, 23] | Plant response rating, Wheat [13, 24] | Plant response rating, Foxtail, Giant [14, 23] | Plant response rating, Foxtail, Giant [14, 24] | Plant response rating, Crabgrass, Large [15, 23] | Plant response rating, Crabgrass, Large [15, 24] | Plant response rating, Pigweed [16, 23] | Plant response rating, Pigweed [16, 24]

CN(C)c1cccc(C2CNC(=O)C2C(=O)Nc2ccccc2F)c1 (centres unmarked) [Compound 360]
0: Plant response rating, Velvetleaf [1, 25] | Plant response rating, Velvetleaf [1, 26] | Plant response rating, Barnyardgrass [2, 25] | Plant response rating, Barnyardgrass [2, 26] | Plant response rating, Corn (corn (Zea mays) [3]; [25]) | Plant response rating, Corn (corn (Zea mays) [3]; [26]) | Plant response rating, Morningglory [4, 25] | Plant response rating, Morningglory [4, 26] | Plant response rating, Wheat [5, 25] | Plant response rating, Wheat [5, 26] | Plant response rating, Foxtail, Giant [6, 25] | Plant response rating, Foxtail, Giant [6, 26] | Plant response rating, Crabgrass, Large [7, 25] | Plant response rating, Crabgrass, Large [7, 26] | Plant response rating, Pigweed [8, 25] | Plant response rating, Pigweed [8, 26] | Plant response rating, Barnyardgrass [17] | Plant response rating, Rice (rice (Oryra sativa)) | Plant response rating, Ducksalad [18] | Plant response rating, Sedge, Umbrella ([19]; 0 to 100 scale where 0 is no effect and 100 is complete control, 13 to 15 d) | Plant response rating, Velvetleaf [9, 27] | Velvetleaf plant response rating (0 to 100 scale) ([9]; 500 g ai/ha) | Plant response rating, Barnyardgrass [10, 27] | Barnyardgrass plant response rating (0 to 100 scale) ([10]; 500 g ai/ha) | Plant response rating, Corn (corn (Zea mays) [11]; [27]) | Corn plant response rating (0 to 100 scale) (corn (Zea mays) [11]; 500 g ai/ha) | Plant response rating, Morningglory [12, 27] | Morningglory plant response rating (0 to 100 scale) ([12]; 500 g ai/ha) | Plant response rating, Wheat [13, 27] | Wheat plant response rating (0 to 100 scale) ([13]; 500 g ai/ha) | Plant response rating, Foxtail, Giant [14, 27] | Foxtail, Giant plant response rating (0 to 100 scale) ([14]; 500 g ai/ha) | Plant response rating, Crabgrass, Large [15, 27] | Crabgrass, Large plant response rating (0 to 100 scale) ([15]; 500 g ai/ha) | Plant response rating, Pigweed [16, 27] | Pigweed plant response rating (0 to 100 scale) ([16]; 500 g ai/ha)
